Test results taken from US6355673B1, “Substituted diaminocarboxylic acids” (Aventis Pharma Deutschland GmbH, priority 1997, dated 2002).

Tests used:
[1] = target: T1, stromelysin (MMP-3) (Homo sapiens, UniProt P08254); assay: Enzyme inhibition of the catalytic domain of human stromelysin (fluorogenic substrate); type: biochemical; details: 15 min preincubation, pH=6.5, fluorescence 328 nm (ex)/393 nm (em)
T1 construct: enzymatic activity of the catalytic domains of human stromelysin and of neutrophil collagenase; made in house
Procedure: (§1) Preparation and determination of the enzymatic activity of the catalytic domains of human stromelysin and of neutrophil collagenase.
(§2) The enzymes stromelysin (MMP-3) and neutrophil collagenase (MMP-8) were prepared according to Ye et al. (Biochemistry; 31 (1992) pages 11231-11235). To measure the enzyme activity or the enzyme inhibitor action, 70 μl of buffer solution and 10 μl of enzyme solution are incubated for 15 min with 10 μl of a 10% strength (v/v) aqueous dimethyl sulfoxide solution, which optionally contains the enzyme inhibitor. After addition of 10 μl of a 10% strength (v/v) aqueous dimethyl sulfoxide solution which contains 1 mil/L of the substrates, the enzyme reaction is monitored by fluorescence spectroscopy (328 nm (ex)/393 nm(em)). The enzyme activity is shown as the extinction increase/min. The IC50 values listed in Table 2 are determined as those inhibitor concentrations which in each case lead to a 50% inhibition of the enzyme.
(§3) The buffer solution contains 0.05% Brij (Sigma, Deisenhofen, Germany) and also 0.1 mol/L tris/HCl, 0.1 mol/L NaCl, 0.01 mol/L CaCl2 and 0.1 mol/L piperazine-N,N′-bis(2-ethanesulfonic acid) (pH=6.5). The enzyme solution contains 5 μg/ml of one of the enzyme domains prepared according to Ye et al. The substrate solution contains 1 mil/L of the fluorogenic substrate (7-methoxycoumarin-4-yl)acetyl-Pro-Leu-Gly-Leu-3-(2′,4′-dinitrophenyl)-L-2,3-diaminopropionyl-Ala-Arg-NH2 (Bachem, Heidelberg, Germany).

[2] = target: T2, neutrophil collagenase (MMP-8) (Homo sapiens, UniProt P22894); assay: Enzyme inhibition of the catalytic domain of neutrophil collagenase (fluorogenic substrate); type: biochemical; details: 15 min preincubation, pH=6.5, fluorescence 328 nm (ex)/393 nm (em)
T2 construct: enzymatic activity of the catalytic domains of human stromelysin and of neutrophil collagenase; made in house
Procedure: as §1, §2, §3

T2 sequence (P22894 100-262 limits assumed): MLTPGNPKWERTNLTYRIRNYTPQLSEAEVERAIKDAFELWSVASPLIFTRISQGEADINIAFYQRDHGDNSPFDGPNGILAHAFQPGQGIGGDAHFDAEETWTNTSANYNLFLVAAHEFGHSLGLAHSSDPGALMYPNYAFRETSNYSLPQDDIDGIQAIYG
T1 sequence (P08254 100-272 limits assumed): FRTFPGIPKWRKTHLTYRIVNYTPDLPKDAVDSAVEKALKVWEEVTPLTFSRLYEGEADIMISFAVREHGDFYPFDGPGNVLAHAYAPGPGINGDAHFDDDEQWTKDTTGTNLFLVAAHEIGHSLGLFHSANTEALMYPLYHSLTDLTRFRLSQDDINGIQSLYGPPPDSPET

Row | Compound | IC50 [1] [µM] | IC50 [2] [µM]
1 | O=C(O)[C@H](CCCn1sc2ccccc2c1=O)NS(=O)(=O)c1ccc(-c2ccc(Cl)cc2)cc1 [Example 114] | 0.005 | 0.002
2 | O=C(CC(C(=O)O)c1ccccc1)NCCC[C@H](NS(=O)(=O)c1ccc(-c2ccc(Cl)cc2)cc1)C(=O)O (some centres unmarked) [Example 55] | 0.007 | 0.003
3 | COc1ccc(C(=O)NCCC[C@H](NS(=O)(=O)c2ccc(-c3ccc(Cl)cc3)cc2)C(=O)O)cc1OC [Example 52] | 0.02 | 0.01
4 | O=C(O)[C@H](CCCN(C(=O)C1CC1)C(=O)C1CC1)NS(=O)(=O)c1ccc(-c2ccc(Cl)cc2)cc1 [Example 63] | 0.01 | 0.002
5 | CC(C)(C)CC(=O)NCCC[C@H](NS(=O)(=O)c1ccc(-c2ccc(Cl)cc2)cc1)C(=O)O [Example 49] | 0.02 | 0.003
6 | O=C(/C=C/c1ccccc1)NCCC[C@H](NS(=O)(=O)c1ccc(-c2ccc(Cl)cc2)cc1)C(=O)O [Example 101] | 0.04 | 0.01
7 | O=C(NCCC[C@H](NS(=O)(=O)c1ccc(-c2ccc(Cl)cc2)cc1)C(=O)O)c1cccnc1 [Example 51] | 0.02 | 0.003
8 | O=C(O)[C@H](CCCN1C(=O)c2ccc(Cl)cc2C1=O)NS(=O)(=O)c1ccc(-c2ccc(Cl)cc2)cc1 [Example 171] | 0.03 | 0.01
9 | O=C(NCCC[C@H](NS(=O)(=O)c1ccc(-c2ccc(Cl)cc2)cc1)C(=O)O)c1cc(F)ccc1F [Example 94] | 0.03 | 0.005
10 | O=C(CC1CCCCC1)NCCC[C@H](NS(=O)(=O)c1ccc(-c2ccc(Cl)cc2)cc1)C(=O)O [Example 108] | 0.02 | 0.005
11 | O=C(NCCC[C@H](NS(=O)(=O)c1ccc(-c2ccc(Cl)cc2)cc1)C(=O)O)c1ccc2[nH]nnc2c1 [Example 125] | 0.01 | 0.01
12 | O=C(/C=C/C1C=NC=N1)NCCC[C@H](NS(=O)(=O)c1ccc(-c2ccc(Cl)cc2)cc1)C(=O)O (some centres unmarked) [Example 140] | 0.06 | 0.02
13 | O=C(NCCC[C@H](NS(=O)(=O)c1ccc(-c2ccc(Cl)cc2)cc1)C(=O)O)c1cccc(F)c1 [Example 95] | 0.02 | 0.004
14 | COc1cccc(C(=O)NCCC[C@H](NS(=O)(=O)c2ccc(-c3ccc(Cl)cc3)cc2)C(=O)O)c1 [Example 152] | 0.06 | 0.01
15 | O=C(NCCC[C@H](NS(=O)(=O)c1ccc(-c2ccc(Cl)cc2)cc1)C(=O)O)c1ccc(Cl)cc1Cl [Example 115] | 0.005 | 0.003
16 | O=C(NCCC[C@H](NS(=O)(=O)c1ccc(-c2ccc(Cl)cc2)cc1)C(=O)O)c1ccccc1O [Example 74] | 0.01 | 0.003
17 | O=C(NCCC[C@H](NS(=O)(=O)c1ccc(-c2ccc(Cl)cc2)cc1)C(=O)O)c1cccc(F)c1F [Example 97] | 0.02 | 0.004
18 | CC(C)COC(=O)NCCC[C@H](NS(=O)(=O)c1ccc(-c2ccc(Cl)cc2)cc1)C(=O)O [Example 118] | 0.01 | 0.004
19 | O=C(NCCC[C@H](NS(=O)(=O)c1ccc(-c2ccccc2)cc1)C(=O)O)c1ccccc1Cl [Example 160] | 0.07 | 0.01
20 | COc1ccc(S(=O)(=O)NCCC[C@H](NS(=O)(=O)c2ccc(-c3ccc(Cl)cc3)cc2)C(=O)O)cc1 [Example 56] | 0.01 | 0.008
21 | O=C(O)[C@H](CCCNC(=O)N1CCOCC1)NS(=O)(=O)c1ccc(-c2ccc(Cl)cc2)cc1 [Example 128] | 0.005 | 0.002
22 | O=C(Cc1ccc(F)cc1)NCCC[C@H](NS(=O)(=O)c1ccc(-c2ccc(Cl)cc2)cc1)C(=O)O [Example 116] | 0.02 | 0.004
23 | O=C(CCCc1ccccc1)NCCC[C@H](NS(=O)(=O)c1ccc(-c2ccc(Cl)cc2)cc1)C(=O)O [Example 157] | 0.04 | 0.007
24 | O=C(NCCC[C@H](NS(=O)(=O)c1ccc(-c2ccc(Cl)cc2)cc1)C(=O)O)c1ccco1 [Example 99] | 0.005 | 0.002
25 | O=C(CCc1ccccc1)NCCC[C@H](NS(=O)(=O)c1ccc(-c2ccc(Cl)cc2)cc1)C(=O)O [Example 133] | 0.005 | 0.002
26 | O=C(NCCC[C@H](NS(=O)(=O)c1ccc(-c2ccc(Cl)cc2)cc1)C(=O)O)c1ccc(F)c(F)c1 [Example 87] | 0.03 | 0.01

Row | Compound | IC50 [1] [µM] | IC50 [2] [µM]
27 | O=C(NCCC[C@H](NS(=O)(=O)c1ccc(-c2ccc(Cl)cc2)cc1)C(=O)O)c1ccc(O)cc1 [Example 102] | 0.02 | 0.005
28 | COc1cc(Cl)cc(C(=O)NCCC[C@H](NS(=O)(=O)c2ccc(-c3ccc(Cl)cc3)cc2)C(=O)O)c1 [Example 156] | 0.06 | 0.02
29 | O=C(NCCC[C@H](NS(=O)(=O)c1ccc(-c2ccc(Cl)cc2)cc1)C(=O)O)c1ccc(Cl)cc1 [Example 90] | 0.02 | 0.005
30 | O=C(NCCCC[C@H](NS(=O)(=O)c1ccc(-c2ccc(Cl)cc2)cc1)C(=O)O)OCc1ccccc1 [Example 16] | 0.02 | 0.01
31 | CCC(=O)NCCC[C@H](NS(=O)(=O)c1ccc(-c2ccc(Cl)cc2)cc1)C(=O)O [Example 82] | 0.02 | 0.004
32 | N#Cc1ccc(C(=O)NCCC[C@H](NS(=O)(=O)c2ccc(-c3ccc(Cl)cc3)cc2)C(=O)O)cc1 [Example 85] | 0.02 | 0.005
33 | Cc1oncc1C(=O)NCCCC[C@@H](NS(=O)(=O)c1ccc(-c2ccc(Cl)cc2)cc1)C(=O)O [Example 4, 4-Chlorobiphenylsulfonyl-N-epsilon-(5-methylisoxazol-4-carbonyl)-Lys-OH] | 0.09 | 0.02
34 | O=C(NCCC[C@H](NS(=O)(=O)c1ccc(-c2ccc(Cl)cc2)cc1)C(=O)O)c1ccccc1Cl [Example 83] | 0.007 | 0.003
35 | O=C(NCCC[C@H](NS(=O)(=O)c1ccc(-c2ccc(Cl)cc2)cc1)C(=O)O)c1ccc(Cl)c(Cl)c1 [Example 92] | 0.04 | 0.02
36 | O=C(NCCC[C@H](NS(=O)(=O)c1ccc(-c2ccc(Cl)cc2)cc1)C(=O)O)c1cc(Cl)ccc1O [Example 162] | 0.05 | 0.006
37 | O=C(NCCC[C@H](NS(=O)(=O)c1ccc(-c2ccc(Cl)cc2)cc1)C(=O)O)c1ccc2ccccc2c1 [Example 110] | 0.04 | 0.02
38 | O=C(O)[C@@H](CCCN1Cc2ccccc2C1=O)NS(=O)(=O)c1ccc(-c2ccc(Cl)cc2)cc1 [Example 7, 2-(2R)-(4-Chlorobiphenylsulfonylamino)-5-(1-oxo-1,3-dihydro-isoindol-2-yl)pentanoic acid] | 0.004 | 0.002
39 | O=C(/C=C/c1ccc(Cl)cc1)NCCC[C@H](NS(=O)(=O)c1ccc(-c2ccc(Cl)cc2)cc1)C(=O)O [Example 132] | 0.03 | 0.01
40 | CN(C)c1ccccc1C(=O)NCCC[C@H](NS(=O)(=O)c1ccc(-c2ccc(Cl)cc2)cc1)C(=O)O [Example 137] | 0.02 | 0.007
41 | Cc1oncc1C(=O)NCCC[C@@H](NS(=O)(=O)c1ccc(-c2ccc(Cl)cc2)cc1)C(=O)O [Example 20] | 0.04 | 0.007
42 | O=C(NCCC[C@H](NS(=O)(=O)c1ccc(-c2ccc(Cl)cc2)cc1)C(=O)O)C1Cc2ccccc2N1 (some centres unmarked) [Example 96] | 0.02 | 0.006
43 | CC(C)(C)C(=O)NCCC[C@H](NS(=O)(=O)c1ccc(-c2ccc(Cl)cc2)cc1)C(=O)O [Example 57] | 0.04 | 0.008
44 | CCCCOc1ccc(C(=O)NCCC[C@H](NS(=O)(=O)c2ccc(-c3ccc(Cl)cc3)cc2)C(=O)O)cc1 [Example 106] | 0.06 | 0.03
45 | COCC(=O)NCCC[C@H](NS(=O)(=O)c1ccc(-c2ccc(Cl)cc2)cc1)C(=O)O [Example 98] | 0.01 | 0.003
46 | O=C(O)C1CC1C(=O)NCCC[C@H](NS(=O)(=O)c1ccc(-c2ccc(Cl)cc2)cc1)C(=O)O (some centres unmarked) [Example 64] | 0.03 | 0.002
47 | CC(C)(C)OC(=O)NCCC[C@H](NS(=O)(=O)c1ccc(-c2ccc(Cl)cc2)cc1)C(=O)O [Example 36] | – | 0.002
48 | O=C(NCCC[C@H](NS(=O)(=O)c1ccc(-c2ccc(Cl)cc2)cc1)C(=O)O)c1cnccn1 [Example 19] | 0.02 | 0.005
49 | N#Cc1ccccc1C(=O)NCCC[C@H](NS(=O)(=O)c1ccc(-c2ccc(Cl)cc2)cc1)C(=O)O [Example 135] | 0.03 | 0.008
50 | O=C(NCCC[C@H](NS(=O)(=O)c1ccc(-c2ccccc2)cc1)C(=O)O)c1ccccc1O [Example 45] | 0.02 | 0.004
51 | O=C(NCCC[C@H](NS(=O)(=O)c1ccc(-c2ccc(Cl)cc2)cc1)C(=O)O)c1ccc(C(F)(F)F)cc1F [Example 109] | 0.02 | 0.007
